Active and inactive are the calls of the source. The rule behind the calls is not given here.
Key:
MCF7 = assay: Cytotoxicity against human MCF7 cells by MTT assay; format: functional, cell-based
[1] = molecular target: T1, Prostaglandin G/H synthase 2 (Homo sapiens) (UniProt P35354); assay: Inhibition of cyclooxygenase 2 at 103.7 uM
T1 sequence (whole entry): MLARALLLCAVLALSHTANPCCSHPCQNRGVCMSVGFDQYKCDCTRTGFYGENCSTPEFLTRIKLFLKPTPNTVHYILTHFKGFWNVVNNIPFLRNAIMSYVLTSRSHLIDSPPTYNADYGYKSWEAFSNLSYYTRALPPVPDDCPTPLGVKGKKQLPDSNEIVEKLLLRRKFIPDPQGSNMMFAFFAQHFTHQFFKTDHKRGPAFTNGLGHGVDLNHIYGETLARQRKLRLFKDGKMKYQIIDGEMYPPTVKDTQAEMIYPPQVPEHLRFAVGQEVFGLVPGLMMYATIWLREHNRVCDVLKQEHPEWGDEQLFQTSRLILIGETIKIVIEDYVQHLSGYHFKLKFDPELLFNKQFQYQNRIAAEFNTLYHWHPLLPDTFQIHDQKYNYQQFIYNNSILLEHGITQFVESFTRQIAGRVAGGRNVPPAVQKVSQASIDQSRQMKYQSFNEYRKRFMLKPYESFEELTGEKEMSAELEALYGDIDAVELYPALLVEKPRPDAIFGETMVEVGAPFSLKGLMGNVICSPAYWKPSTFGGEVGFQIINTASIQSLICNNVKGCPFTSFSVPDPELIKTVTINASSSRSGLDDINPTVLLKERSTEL

[2] = molecular target: Prostaglandin G/H synthase 1 (Homo sapiens) (UniProt P23219); assay: Inhibition of cyclooxygenase 1 at 103.7 uM
NCI-H460 = assay: Cytotoxicity against human NCI-H460 cells by MTT assay; format: functional, cell-based
SF-268 = assay: Cytotoxicity against human SF-268 cells by MTT assay; format: functional, cell-based
AGS = assay: Cytotoxicity against human AGS cells by MTT assay; format: functional, cell-based
HCT-116 = assay: Cytotoxicity against human HCT116 cells by MTT assay; format: functional, cell-based

Sequence of Prostaglandin G/H synthase 1 (Homo sapiens) (P23219 whole entry): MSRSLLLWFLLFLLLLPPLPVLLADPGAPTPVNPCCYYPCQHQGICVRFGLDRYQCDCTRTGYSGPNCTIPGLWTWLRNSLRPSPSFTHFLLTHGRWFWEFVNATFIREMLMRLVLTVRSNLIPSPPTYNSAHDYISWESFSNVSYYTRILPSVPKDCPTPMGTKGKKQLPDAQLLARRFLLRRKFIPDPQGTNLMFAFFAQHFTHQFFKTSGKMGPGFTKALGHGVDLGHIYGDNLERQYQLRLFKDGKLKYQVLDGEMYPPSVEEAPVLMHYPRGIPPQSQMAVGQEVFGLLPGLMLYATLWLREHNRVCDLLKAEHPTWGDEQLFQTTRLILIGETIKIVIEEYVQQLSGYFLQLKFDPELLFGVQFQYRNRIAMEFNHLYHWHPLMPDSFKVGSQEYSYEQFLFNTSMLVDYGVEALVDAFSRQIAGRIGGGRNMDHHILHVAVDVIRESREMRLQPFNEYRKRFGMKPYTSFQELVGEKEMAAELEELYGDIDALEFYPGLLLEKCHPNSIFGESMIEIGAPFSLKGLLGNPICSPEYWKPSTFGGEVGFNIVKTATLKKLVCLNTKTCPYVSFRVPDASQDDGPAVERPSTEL

SMILES | IC50 (MCF7) | Activity [1] | Activity [2] | IC50 (NCI-H460) | IC50 (SF-268) | IC50 (AGS) | IC50 (HCT-116) | Activity (MCF7) | Activity (NCI-H460) | Activity (SF-268) | Activity (AGS) | Activity (HCT-116)
CCC(C)C(=O)c1c(O)cc(O)c2c1O[C@](C)(CC/C=C(\C)CCC=C(C)C)[C@@H](CC=C(C)C)C2 (stereo partly specified) [PROLIFICIN A] | 23.7 µM | inactive | inactive | 29.9 µM | 30.9 µM | 32.4 µM | 35.1 µM | – | – | – | – | –
CC(C)=CCC/C(C)=C/CC[C@]1(C)[C@@H](CC=C(C)C)CC2C(=O)C1(C(=O)C(C)C)C(=O)C=C2O (stereo partly specified) | – | inactive | inactive | – | – | – | – | inactive | inactive | inactive | inactive | inactive
COc1cccc2c1C(=O)c1c(O)c3c(c(O)c1C2=O)C[C@@](O)(C(=O)CO)C[C@@H]3O[C@H]1C[C@H](N)[C@H](O)[C@H](C)O1 [DOXORUBICIN] | 0.43 µM | – | – | 0.66 µM | 1.55 µM | 0.31 µM | 0.41 µM | – | – | – | – | –
CCC(C)C(=O)C12C(=O)C=C(O)C(C[C@H](CC=C(C)C)[C@@]1(C)CC/C=C(\C)CCC=C(C)C)C2=O (stereo partly specified) | – | inactive | inactive | – | – | – | – | inactive | inactive | inactive | inactive | inactive

Reference: ChEMBL document CHEMBL1158115, “Acylphloroglucinol derivatives from Hypericum prolificum” (J Nat Prod, 2006)
